In patent US7537760B2, “Monoclonal antibodies recognizing BAG3 protein sequences and their use in diagnostic and therapy of cell death-involving diseases” (priority 2001, dated 2009):

How the values were obtained:
[1] = tested on: cells of the human osteosarcoma line SAOS; test: Apoptosis in SAOS cells, cell permeabilization and PI staining; type: cell-based; conditions: 72 h; for % of apoptosis, incubation Etoposide (5 microM) / % of apoptosis, incubation Topotecan (40 ng/ml): without or with oligo 5 microM
Protocol: Cells of the SAOS line were incubated for 72 h in 10% FCS-RPMI without or with chemotherapeutic compounds (etoposide or topotecan) and/or the BAG3 antisense or control nonsense phosphorothioate oligodeoxynucleotides (5 microM) described in the text. Then cell apoptosis was analysed by cell permeabilization and PI staining according to ref.11.

BAG3 = BAG3 mRNA (PCR) and protein (immunofluorescence) levels in primary B-CLL cells; type: cell-based, human
Protocol: FIG. 1—Expression of BAG3 mRNA and protein in primary cells from leukemia patients. Leukemic cells were isolated from B-CLL patients' peripheral blood specimens by centrifugation through Ficoll-Hypaque (13) and cultured for 24 hours in RPMI 1640 medium supplemented with 10% fetal calf serum (10% FCS-RPMI), without or with fludarabine phosphate. A panel: cell mRNA was the extracted and BAG3 expression was verified by PCR (GAPDH expression is shown for comparative purpose); B panel: cells were permeabilised and analysed by indirect immunofluorescence with the polyclonal antibody AC-BAG3-1. A=control rabbit Ig; b=cells incubated with control medium and analysed with anti-BAG3; c=cells incubated with fludarabine and analysed with anti-BAG3.
FIG. 2—Downmodulation of BAG3 protein levels by anti-BAG3 antisense oligodeoxynucleotides. Leukemic cells were isolated from B-CLL patients' peripheral blood specimens by centrifugation through Ficoll-Hypaque and cultured for 20 hours without (b) or with BAG3 antisense (b+α) or control nonsense (b+ν) phosphorothioate oligodeoxynucleotides (5 microM) described in the text. Then cells were permeabilised and analysed by indirect immunofluorescence with the polyclonal antibody AC-BAG3-1. a=control rabbit Ig.

BAG3 protein = target: T1, BAG3 protein (Homo sapiens, UniProt O95817); test: BAG3 protein in ALL cells, Western blot and intracellular immunofluorescence; type: cell-based; conditions: oligo 5 microM, 24 hr
T1 construct: endogenous in cells; host or cells: primary leukemic cells from patients' peripheral blood (B-CLL, acute leukemia)
T1 sequence (O95817 whole entry): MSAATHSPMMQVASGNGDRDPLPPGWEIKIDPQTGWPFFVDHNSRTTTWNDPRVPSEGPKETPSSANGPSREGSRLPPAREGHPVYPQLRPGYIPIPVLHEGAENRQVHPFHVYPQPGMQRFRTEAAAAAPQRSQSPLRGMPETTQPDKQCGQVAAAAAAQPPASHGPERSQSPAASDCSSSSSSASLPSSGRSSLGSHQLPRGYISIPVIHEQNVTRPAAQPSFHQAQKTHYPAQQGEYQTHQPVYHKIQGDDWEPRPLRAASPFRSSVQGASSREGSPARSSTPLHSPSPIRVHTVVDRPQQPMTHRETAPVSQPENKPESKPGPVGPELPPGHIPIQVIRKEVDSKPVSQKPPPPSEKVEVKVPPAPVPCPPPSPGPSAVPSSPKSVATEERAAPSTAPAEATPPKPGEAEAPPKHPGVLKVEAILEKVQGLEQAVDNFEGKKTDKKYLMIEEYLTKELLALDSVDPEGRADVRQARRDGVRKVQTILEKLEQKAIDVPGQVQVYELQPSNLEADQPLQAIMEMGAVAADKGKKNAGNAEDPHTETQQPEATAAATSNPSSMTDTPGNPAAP
Protocol: FIG. 11 Expression of BAG3 protein in ALL cells and its downmodulation by BAG3-specific antisense oligonucleotides. A—ALL cells (1×10^6/ml) were cultured in 10% FCS-RPMI without or with control nonsense ([…], SEQ ID NO 12, nonsense 1) or BAG3-specific antisense ([…], SEQ ID NO 9, antisense 1) oligonucleotides (5 microM) for 24 hr. Then cell lysates were obtained and analyzed in Western blot with anti-BAG3 (AC-BAG3-1; analogous results were obtained With AC-BAG3-2) or anti-tubulin antibodies. B—ALL cells (1×10^6/ml) were cultured in 10% FCS-RPMI without or with BAG3-specific antisense ([…], SEQ ID NO 9, antisense 1) (a) or control nonsense ([…], SEQ ID NO 12, nonsense 1) (b) oligonucleotides (5 microM) for 24 hr. Then the cells were analyzed by intracellular immunofluorescence with the anti-BAG3 polyclonal antibody. Negative controls with a control rabbit antibody preparation are shown on the left in a and b.

**Q.** For COc1cc([C@@H]2c3cc4c(cc3[C@@H](O[C@@H]3O[C@@H]5CO[C@@H](C)O[C@H]5[C@H](O)[C@H]3O)[C@H]3COC(=O)[C@H]23)OCO4)cc(OC)c1O [Etoposide, etoposide], which “% of apoptosis, incubation Etoposide (5 microM)” value [1] is on record?
**A.** 38.32%

**Q.** Which “% of apoptosis, incubation Topotecan (40 ng/ml)” value [1] does the source give for CC[C@@]1(O)C(=O)OCc2c1cc1n(c2=O)Cc2cc3c(CN(C)C)c(O)ccc3nc2-1 [Topotecan, topotecan] here?
**A.** 36.84%

**Q.** Nc1nc(F)nc2c1ncn2[C@@H]1O[C@H](COP(=O)(O)O)[C@@H](O)[C@@H]1O [fludarabine, fludarabine phosphate] was tested. Which “BAG3 mRNA levels” value (BAG3; 24 hours, PCR) did it give?
**A.** enhanced

**Q.** And the BAG3 protein levels (BAG3; immunofluorescence, 11 of 13 BAG3-positive specimens (18 examined))?
**A.** upregulated

**Q.** “antisense 1: BAG3 antisense phosphorothioate oligodeoxynucleotide TGCATCATGGGCGAGTGGGTGGCGG (antisense TGCATCATGGGCGAGTGGGTGGCGG; DNA, all phosphorothioate, methylation of C not given here; listed as Homo sapiens)” was tested. Which “BAG3 protein in ALL cells” value (BAG3 protein) did it give?
**A.** downmodulation

**Q.** What does the source list for “control nonsense: control nonsense phosphorothioate oligodeoxynucleotides described in the text; which of nonsense 1-3 is not stated (DNA TTATATTCTATTATATTTATGAACTCC; DNA, all phosphorothioate, methylation of C not given here; listed as Homo sapiens)”?
**A.** % of apoptosis, incubation Etoposide (5 microM) [1]: 45.40%; % of apoptosis, incubation Topotecan (40 ng/ml) [1]: 41.60%; % of apoptosis, incubation control medium ([1]; oligo 5 microM, no chemotherapeutic compound): 25.84%
